Legend:
Format in all cases: binding
panel of 442 kinases [1] = molecular target: T1, panel of 442 kinases (Homo sapiens, UniProt Q9Y2H9); details: Compound Concentration 10 µM
T1 construct: purchased KINOMEscan
Description: (§1) We assessed the selectivity of members of this scaffold using the KINOMEscan methodology across a near comprehensive panel of 442 kinases [[18,27]].

panel of 442 kinases [2] = molecular target: T2, panel of 442 kinases (Homo sapiens, UniProt P08581, Y1235D); details: Compound Concentration 10 µM
T2 construct: purchased KINOMEscan
T2 sequence (P08581 25-1390 Y1235D): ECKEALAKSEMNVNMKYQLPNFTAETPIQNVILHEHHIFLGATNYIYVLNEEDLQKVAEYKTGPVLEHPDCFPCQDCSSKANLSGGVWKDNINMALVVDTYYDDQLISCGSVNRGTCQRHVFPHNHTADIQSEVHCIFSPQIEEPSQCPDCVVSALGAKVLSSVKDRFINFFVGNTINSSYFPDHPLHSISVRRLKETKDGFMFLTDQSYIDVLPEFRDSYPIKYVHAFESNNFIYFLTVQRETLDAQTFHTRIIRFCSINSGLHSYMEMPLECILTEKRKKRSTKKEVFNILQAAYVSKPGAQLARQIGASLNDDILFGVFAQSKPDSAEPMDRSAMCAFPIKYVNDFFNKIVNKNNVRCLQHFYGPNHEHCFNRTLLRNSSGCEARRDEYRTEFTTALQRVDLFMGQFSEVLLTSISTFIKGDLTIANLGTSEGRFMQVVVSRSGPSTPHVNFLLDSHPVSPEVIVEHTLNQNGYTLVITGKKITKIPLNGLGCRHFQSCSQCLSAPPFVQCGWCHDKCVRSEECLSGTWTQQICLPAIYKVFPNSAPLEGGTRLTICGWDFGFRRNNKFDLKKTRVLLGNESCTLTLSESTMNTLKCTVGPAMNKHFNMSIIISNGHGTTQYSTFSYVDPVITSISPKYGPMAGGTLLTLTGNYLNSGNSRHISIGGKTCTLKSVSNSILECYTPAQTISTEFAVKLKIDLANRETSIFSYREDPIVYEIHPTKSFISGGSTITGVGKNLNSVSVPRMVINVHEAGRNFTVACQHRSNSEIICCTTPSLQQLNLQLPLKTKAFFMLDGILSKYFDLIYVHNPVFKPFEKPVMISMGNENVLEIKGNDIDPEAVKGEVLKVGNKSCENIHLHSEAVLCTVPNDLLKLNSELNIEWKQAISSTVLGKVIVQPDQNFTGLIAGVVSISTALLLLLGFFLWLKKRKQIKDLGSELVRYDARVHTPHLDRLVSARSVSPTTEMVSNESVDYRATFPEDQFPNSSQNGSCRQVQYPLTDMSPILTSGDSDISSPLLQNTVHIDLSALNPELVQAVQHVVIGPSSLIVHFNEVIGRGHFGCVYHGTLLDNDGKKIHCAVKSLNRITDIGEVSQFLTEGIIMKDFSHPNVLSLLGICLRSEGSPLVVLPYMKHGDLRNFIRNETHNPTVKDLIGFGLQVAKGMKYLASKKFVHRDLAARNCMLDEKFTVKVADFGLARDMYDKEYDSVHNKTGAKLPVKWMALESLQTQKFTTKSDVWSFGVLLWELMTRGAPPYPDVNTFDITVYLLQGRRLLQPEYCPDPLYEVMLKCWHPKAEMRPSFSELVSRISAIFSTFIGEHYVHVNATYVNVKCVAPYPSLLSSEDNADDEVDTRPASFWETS
Description: as §1

panel of 442 kinases [3] = molecular target: T3, panel of 442 kinases (Homo sapiens, UniProt P43403); details: kinase ZAP70; compound concentration 10 µM
T3 construct: purchased KINOMEscan
T3 sequence (P43403 1-619): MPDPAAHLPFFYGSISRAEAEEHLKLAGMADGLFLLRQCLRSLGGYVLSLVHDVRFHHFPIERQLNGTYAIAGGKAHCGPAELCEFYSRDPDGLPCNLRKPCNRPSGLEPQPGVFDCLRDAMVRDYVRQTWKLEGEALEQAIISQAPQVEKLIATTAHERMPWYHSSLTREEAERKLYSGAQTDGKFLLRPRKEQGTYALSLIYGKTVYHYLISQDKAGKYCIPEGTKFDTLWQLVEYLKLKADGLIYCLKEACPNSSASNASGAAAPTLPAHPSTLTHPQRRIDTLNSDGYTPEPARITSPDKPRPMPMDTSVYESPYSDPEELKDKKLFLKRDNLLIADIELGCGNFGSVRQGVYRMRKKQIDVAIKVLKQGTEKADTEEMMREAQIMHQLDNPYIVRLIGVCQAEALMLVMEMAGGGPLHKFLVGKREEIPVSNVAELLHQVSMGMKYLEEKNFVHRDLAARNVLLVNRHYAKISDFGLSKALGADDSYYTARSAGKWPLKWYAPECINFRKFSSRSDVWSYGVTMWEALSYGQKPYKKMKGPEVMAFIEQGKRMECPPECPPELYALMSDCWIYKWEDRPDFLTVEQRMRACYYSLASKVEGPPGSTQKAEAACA
Description: as §1

T1 sequence (Q9Y2H9 whole entry): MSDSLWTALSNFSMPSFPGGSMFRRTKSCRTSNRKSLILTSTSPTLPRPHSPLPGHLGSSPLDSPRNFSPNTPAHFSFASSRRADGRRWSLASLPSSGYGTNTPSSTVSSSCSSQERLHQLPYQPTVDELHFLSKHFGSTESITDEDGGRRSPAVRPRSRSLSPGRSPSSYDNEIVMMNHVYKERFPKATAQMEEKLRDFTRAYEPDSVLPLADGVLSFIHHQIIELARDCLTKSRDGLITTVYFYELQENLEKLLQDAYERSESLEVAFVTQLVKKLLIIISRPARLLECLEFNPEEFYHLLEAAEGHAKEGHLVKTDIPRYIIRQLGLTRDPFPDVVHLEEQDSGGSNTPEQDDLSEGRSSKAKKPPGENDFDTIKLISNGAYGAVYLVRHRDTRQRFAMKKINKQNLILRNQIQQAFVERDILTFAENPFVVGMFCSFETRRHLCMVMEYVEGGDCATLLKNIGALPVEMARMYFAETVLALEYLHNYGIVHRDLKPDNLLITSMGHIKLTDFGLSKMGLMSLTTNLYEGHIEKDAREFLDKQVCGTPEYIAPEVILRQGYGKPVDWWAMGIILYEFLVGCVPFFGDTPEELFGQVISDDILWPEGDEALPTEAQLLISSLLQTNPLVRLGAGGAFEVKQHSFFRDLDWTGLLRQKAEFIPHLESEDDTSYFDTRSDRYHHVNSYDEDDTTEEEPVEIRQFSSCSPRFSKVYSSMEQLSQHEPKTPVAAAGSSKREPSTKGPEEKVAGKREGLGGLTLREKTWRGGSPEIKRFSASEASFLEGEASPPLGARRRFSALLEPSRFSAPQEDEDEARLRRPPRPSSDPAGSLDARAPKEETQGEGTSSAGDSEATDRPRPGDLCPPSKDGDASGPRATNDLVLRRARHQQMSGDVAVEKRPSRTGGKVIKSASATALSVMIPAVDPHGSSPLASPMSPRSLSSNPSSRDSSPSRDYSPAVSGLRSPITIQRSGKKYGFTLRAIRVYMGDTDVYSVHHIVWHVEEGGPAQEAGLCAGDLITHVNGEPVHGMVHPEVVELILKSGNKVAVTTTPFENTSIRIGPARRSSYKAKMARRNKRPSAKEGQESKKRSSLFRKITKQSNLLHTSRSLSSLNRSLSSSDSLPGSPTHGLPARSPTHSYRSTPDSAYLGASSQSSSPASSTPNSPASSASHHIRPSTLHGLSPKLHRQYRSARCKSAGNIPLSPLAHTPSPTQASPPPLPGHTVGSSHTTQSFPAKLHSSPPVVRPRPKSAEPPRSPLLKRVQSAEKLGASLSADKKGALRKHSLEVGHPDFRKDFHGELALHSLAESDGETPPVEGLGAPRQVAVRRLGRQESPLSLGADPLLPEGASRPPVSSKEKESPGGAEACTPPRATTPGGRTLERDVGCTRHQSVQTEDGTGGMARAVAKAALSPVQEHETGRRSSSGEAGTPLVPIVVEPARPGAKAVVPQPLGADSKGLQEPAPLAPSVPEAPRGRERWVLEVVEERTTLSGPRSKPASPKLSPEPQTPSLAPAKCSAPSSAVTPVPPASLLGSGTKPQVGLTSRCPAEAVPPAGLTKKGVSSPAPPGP

Structure (SMILES) | KINOMEscan: MAST1 (panel of 442 kinases [1]) | KINOMEscan: MET(Y1235D) (panel of 442 kinases [2]) | % Ctrl, ZAP70 (panel of 442 kinases [3])
COc1cc(C(=O)N2CCC(N3CCN(C)CC3)CC2)ccc1Nc1ncc2c(n1)N(C1CCCC1)c1ccccc1C(=O)N2C [Compound 25, 11-cyclopentyl-2-((2-methoxy-4-(4-(4-methylpiperazin-1-yl)piperidine-1-carbonyl)phenyl)amino)-5-methyl-5H-benzo[e]pyrimido[5,4-b][1,4]diazepin-6(11H)-one] | 78 | 100 | 79 % Ctrl
COc1cc(C(=O)N2CCC(N3CCN(C)CC3)CC2)ccc1Nc1ncc2c(n1)N1CCc3cccc(c31)C(=O)N2C [Compound 24] | 73 | 74 | 100 % Ctrl
COc1cc(C(=O)N2CCC(N3CCN(C)CC3)CC2)ccc1Nc1ncc2c(n1)N(C)c1ccccc1C(=O)N2C [15 (LRRK2-IN-1)] | 100 | 100 | 79 % Ctrl
CCOc1cc(C(=O)N2CCC(N3CCN(C)CC3)CC2)ccc1Nc1ncc2c(n1)N(C1CCCC1)c1ccccc1C(=O)N2C [Compound 26] | 100 | 100 | 90 % Ctrl

Reference: PMC3914206
